Test results as given in publication PMC3375280 (PLoS ONE, 2012).
Values joined by “and” are separate entries in the source; they are usually repeats but may differ in a detail not shown here. Identical values can stand only once.

Columns and labels:
[1] = biological target: T1, AT1 wild-type (WT) receptor (Rattus norvegicus, UniProt P25095); assay: 125I-[Sar1,Ile8]AngII competition binding, wild-type receptor; conditions: WT; for Kd: COS1 cell membranes, 100 pM 125I-[Sar1,Ile8]AngII, 1 h 22°C, read-out: Binding affinity (Kd); for Kd ratio relative to olmesartan (in parentheses): compound Kd / olmesartan Kd
T1 construct: expressed in transfected cells; host or cells: COS1
T1 sequence (P25095 1-359): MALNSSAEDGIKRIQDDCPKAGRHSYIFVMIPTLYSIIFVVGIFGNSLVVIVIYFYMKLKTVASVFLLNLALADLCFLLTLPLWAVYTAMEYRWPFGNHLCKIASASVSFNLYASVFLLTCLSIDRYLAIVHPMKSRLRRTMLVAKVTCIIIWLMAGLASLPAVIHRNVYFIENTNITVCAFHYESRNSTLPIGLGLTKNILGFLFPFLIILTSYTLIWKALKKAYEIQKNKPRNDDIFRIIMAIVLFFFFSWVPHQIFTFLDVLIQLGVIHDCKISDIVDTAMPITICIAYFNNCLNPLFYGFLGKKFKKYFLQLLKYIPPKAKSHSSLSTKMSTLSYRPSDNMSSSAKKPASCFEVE
Procedure: The Kd and Bmax values of receptor binding were determined by ^125I-[Sar^1, Ile^8] […] Membranes expressing the WT or mutant AT1 receptors were incubated with 100 pM ^125I-[Sar^1, Ile^8] […] The binding reaction was terminated by filtering the incubation mixture through Whatman GF/C glass filters, and the residues were extensively washed further with binding buffer. The bound ligand fraction was determined from the counts per minute (cpm) remaining on the membrane. Binding kinetics values were determined as previously described.

[2] = biological target: T2, wild-type (WT) AT1 receptor (Rattus norvegicus, UniProt P25095); assay: inositol phosphate (IP) production in COS1 cells expressing WT AT1 receptor; conditions: 1 µM compound, vs basal IP production
T2 sequence (P25095 1-359): T1 sequence (P25095 1-359)
Procedure: The test compounds were added 1 h before the measurement of IP.
The WT and mutant AT1 receptors were transiently transfected into COS1 cells using Lipofectamine 2000 liposomal reagent (Roche Applied Science) according to the manufacturer’s instructions.
Cells expressing the WT and mutant AT1 receptors were incubated for 30 minutes at 22°C with or without the indicated concentrations of ARBs. The cells were washed-out once with the use of excess cold HBSS, and used in an IP production study. Total soluble IP was measured by the perchloric acid extraction method, as described previously [16].

AT1 receptor = conditions: Cys76 accessible; cited from earlier work

Compound | Kd [1] [nM] | Kd ratio relative to olmesartan (in parentheses) [1] | Pharmacological behaviour toward IP production (agonism / neutral antagonism / inverse agonism) [2] | % inhibition of 125I-[Sar1,Ile8]AngII binding by MTSEA+ reagent (AT1 receptor)
CCCc1nc(C(C)(C)O)c(C(N)=O)n1Cc1ccc(-c2cc(Cc3ccccc3)ccc2-c2nnn[nH]2)cc1 [R801832] | 276 ± 22 | 100 fold and 120 fold | agonism | –
CCCc1nc(C(C)C)c(C(N)=O)n1Cc1ccc(-c2cc(Cc3ccc(O)cc3)ccc2-c2nnn[nH]2)cc1 [R795100] | 179 ± 84 | – | agonism | –
CCCc1nc(C(C)(C)O)c(C(=O)O)n1Cc1ccc(-c2cc(Cc3ccc(OCOC)cc3)ccc2-c2nnn[nH]2)cc1 [R781254] | 396 ± 80 | 172 fold | inverse agonism | –
CS(=O)(=O)SCCN [MTSEA^+, methanethiosulphonate ethyl-ammonium] | – | – | – | approximately 30%

Further molecules by falling Kd [1], results first:

Kd [1] [nM] | Kd ratio relative to olmesartan (in parentheses) [1] | Pharmacological behaviour toward IP production (agonism / neutral antagonism / inverse agonism) [2] | Compound | % inhibition of 125I-[Sar1,Ile8]AngII binding by MTSEA+ reagent (AT1 receptor)
125 ± 26 | – | neutral antagonism | CCCc1nc(C(C)(C)O)c(C(=O)O)n1Cc1ccc(-c2cc(Cc3cccc(O)c3)ccc2-c2nnn[nH]2)cc1 [R791212] | –
21 ± 10 | 9.1 fold | inverse agonism | CCCc1nc(C(C)(C)O)c(C(=O)O)n1Cc1ccc(-c2cc(Cc3ccc(O)cc3)ccc2-c2nnn[nH]2)cc1 [R781253] | –
